{"source": "patent US8580773B2", "about": "“Small-molecule inhibitors of the androgen receptor” (The Regents of the University of California, priority 2008, dated 2013)", "key": {"LNCaP cells": {"test_system": "LNCaP cells", "assay": "Cell proliferation (DNA content, DAPI) in LNCaP cells", "type": "cell-based, human", "details": "3 nM DHT, PP 100 nM, HH 100 nM, BiC 1 μM, seven days, hydrochloride", "description": "(§1) LN-AR cells were created by retroviral infection of a high-expressing AR vector into LNCaP cells, and proliferate independent of androgen in cell culture, unlike their parental line (Chen, C. D., et al., Molecular determinants of resistance to antiandrogen therapy. Nat Med, 2004. 10(1): p. 33-9). HEK293 cells were used as a control. Cells were transferred to charcoal-stripped media two days before they were split and plated in quadruplicate at a density of approximately 20,000 cells/well in 48-well plates. […] Media were changed every day, using a single preparation to ensure consistent compound concentrations. Proliferation was determined by measuring the DNA content of the cells in each well. Each day, the cells in four wells were fixed in 100% cold methanol, followed by staining for 5 min at RT with 0.2 ng/mL 4′,6-diamidino-2-phenylindole (DAPI) in PBS. The cells were washed once in PBS, then read on a fluorescence plate reader using 365/439 excitation/emission wavelengths. LAPC4 and LNCaP cells proliferated to a much greater degree in the presence of DHT, while LN-AR cells proliferated in the presence and absence of DHT."}, "HEK293 cells": {"test_system": "HEK293 cells", "assay": "Cell proliferation (DNA content, DAPI) in control HEK293 cells", "type": "cell-based", "details": "PP 100 nM, HH 100 nM, BiC 1 μM", "description": "as §1"}}, "note": "“Also recorded” adds a separate entry of the source. Structures can show the parent of a compound that is named as a salt.", "data": [{"compound": "Cc1nccc2c1[nH]c1cc(O)ccc12", "note": "[HH, harmol hydrochloride]", "values": [{"measurement": "Inhibition of cell growth", "setting": "LNCaP cells", "result": "inhibited significantly; also recorded: growth-inhibitory properties"}, {"measurement": "Non-specific growth inhibition", "setting": "HEK293 cells", "result": "Neither compound exhibited non-specific growth inhibition"}]}]}
